Like-named read-outs stand apart in the source and are kept apart here.
What was measured:
[1] = target: T1, full-length beta-Catenin (Uniprot ID P35222) (Homo sapiens, UniProt P35222); assay: Fluorescence polarization IC50 (beta-catenin / 5FAM-TCF4 10-53 competition); assay type: binding
T1 construct: 10 nM full-length beta-Catenin (Uniprot ID P35222)
T1 sequence (P35222 1-781): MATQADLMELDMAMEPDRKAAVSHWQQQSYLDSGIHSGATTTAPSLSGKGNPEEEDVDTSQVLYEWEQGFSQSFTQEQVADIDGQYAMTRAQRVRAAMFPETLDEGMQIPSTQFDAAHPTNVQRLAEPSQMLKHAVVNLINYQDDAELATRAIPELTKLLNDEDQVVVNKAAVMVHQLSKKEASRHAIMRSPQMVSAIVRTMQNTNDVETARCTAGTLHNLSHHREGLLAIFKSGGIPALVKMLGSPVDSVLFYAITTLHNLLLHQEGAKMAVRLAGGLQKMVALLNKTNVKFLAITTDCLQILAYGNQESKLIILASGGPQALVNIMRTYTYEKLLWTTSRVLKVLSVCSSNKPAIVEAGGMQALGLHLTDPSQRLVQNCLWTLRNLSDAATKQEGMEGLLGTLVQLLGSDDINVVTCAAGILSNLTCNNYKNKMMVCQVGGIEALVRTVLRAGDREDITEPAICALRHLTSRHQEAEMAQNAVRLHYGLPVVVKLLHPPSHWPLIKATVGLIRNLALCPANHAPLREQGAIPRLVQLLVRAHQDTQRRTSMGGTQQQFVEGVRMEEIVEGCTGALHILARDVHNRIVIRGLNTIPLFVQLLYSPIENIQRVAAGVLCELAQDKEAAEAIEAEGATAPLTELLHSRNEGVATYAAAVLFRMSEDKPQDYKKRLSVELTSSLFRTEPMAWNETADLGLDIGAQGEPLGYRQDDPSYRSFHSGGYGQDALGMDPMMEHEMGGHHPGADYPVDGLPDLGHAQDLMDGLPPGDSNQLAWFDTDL

[2] = target: T2, beta-catenin/TCF4 engagement (Homo sapiens, UniProt P35222); assay: Nano-BRET target engagement assay (B-cat-Halo & TCF4-Luc in HEK293 cells); assay type: cell-based; details: read-out: NanoBRET Abs IC50
T2 construct: expressed in transfected cells; host or cells: HEK293
T2 sequence (P35222 1-781): T1 sequence (P35222 1-781)

[3] = fluorescence polarization; read-out: beta-Catenin FP IC50

| SMILES | IC50 [1, 3] | IC50 ([2]; absolute IC50) | IC50 [2] | IC50 ([1]; read-out: beta-Catenin FP IC50) | IC50 ([1]; read-out: beta-Catenin FP IC50; fluorescence polarization) |
| --- | --- | --- | --- | --- | --- |
| CC(=O)N1CCC[C@]12CC=CCCCC1(CCCC=CCCCOC(=O)N3CC[C@@](C(=O)N[C@@H](Cc4ccsc4)C(=O)N[C@H](C(=O)N[C@@H](C)C(N)=O)[C@@H](C)c4ccc5ccccc5c4)(C3)NC(=O)[C@H](C(C)C)NC(=O)[C@H](Cc3ccccc3)NC(=O)[C@H](C)NC(=O)[C@H](CCC(N)=O)NC(=O)[C@H](Cc3cccc(C(=O)O)c3)NC(=O)[C@H](CC(=O)O)NC1=O)NC(=O)[C@H](CC(C)(C)C)NC(=O)[C@H](CC(=O)O)NC2=O (stereo partly drawn) [I-2314, Ac-PL3-Asp-Npg-B5-Asp-3COOHF-Gln-Ala-Phe-Val-PyrS2-3Thi-SbMe2NapA-Ala-NH2] | 0.048 µM | > 20 µM |  |  |  |
| CC(=O)N[C@]1(C)CCCC=CCCCC2(CCCC=CCCCOC(=O)N3CC[C@@](C(=O)N[C@@H](Cc4ccccc4C(F)(F)F)C(=O)N[C@@H](Cc4csc5ccccc45)C(=O)N[C@@H](CCC(N)=O)C(N)=O)(C3)NC(=O)[C@H](CC(C)C)NC(=O)[C@H](Cc3ccccc3)NC(=O)[C@H](C)NC(=O)[C@H](C)NC(=O)[C@H](Cc3cccc(C(=O)O)c3)NC(=O)[C@H](CC(=O)O)NC2=O)NC(=O)[C@H](CC(C)(C)C)NC(=O)[C@H](CC(=O)O)NC1=O (stereo partly drawn) [I-2565, Ac-R5-Asp-Npg-B5-Asp-3COOHF-Ala-Ala-Phe-Leu-PyrS2-2F3MeF-BztA-Gln-NH2] | 0.09 µM |  | 21 µM |  |  |
| CC(=O)N1CCC[C@]12CC=CCCCC1(CCCC=CCCCOC(=O)N3CC[C@@](C(=O)N[C@@H](Cc4ccccc4Cl)C(=O)N[C@@H](Cc4csc5ccccc45)C(=O)N[C@H](CO)Cc4ccccc4)(C3)NC(=O)[C@H](CC(N)=O)NC(=O)[C@H](Cc3ccccc3)NC(=O)[C@H](C)NC(=O)[C@H](C)NC(=O)[C@H](CC(=O)O)NC(=O)[C@H](CC(=O)O)NC1=O)NC(=O)[C@H](CC(C)(C)C)NC(=O)[C@H](CC(=O)O)NC2=O (stereo partly drawn) [I-1083, Ac-PL3-Asp-Npg-B5-Asp-Asp-Ala-Ala-Phe-Asn-PyrS2-2C1F-BztA-Pheo1] |  | 18.8 µM |  | 0.008 µM |  |
| CCCC[C@@H]1NC(=O)[C@H](CC(=O)O)NC(=O)[C@]2(CC=CCCCC3(CCCC=CCCCCCC[C@@](C)(C(=O)N[C@@H](Cc4ccccc4)C(=O)N[C@@H](Cc4csc5ccccc45)C(=O)N[C@@H](CCC(N)=O)C(N)=O)NC(=O)[C@H](CCO)NC(=O)[C@H](Cc4ccccc4)NC(=O)[C@H](C)NC(=O)[C@H](C)NC(=O)[C@H](CCC(=O)O)NC(=O)[C@H](CC(=O)O)NC3=O)NC1=O)CCCN2C(C)=O (stereo partly drawn) [I-1524, Ac-PL3-Asp-nLeu-B5-Asp-Glu-Ala-Ala-Phe-Hse-S8-Phe-BztA-Gln-NH2] | 0.017 µM | 8.1 µM |  |  |  |
| CC(=O)N1CCC[C@]12CC=CCCCC1(CCCC=CCCCOC(=O)N3CC[C@@](C(=O)N[C@@H](Cc4ccsc4)C(=O)N[C@@H](Cc4csc5ccccc45)C(=O)N[C@@H](CCC(N)=O)C(N)=O)(C3)NC(=O)[C@H](CC(C)C)NC(=O)[C@H](Cc3ccccc3)NC(=O)[C@H](CCCCNC(=O)COCCOCCNC(=O)CC[C@@H](C)[C@H]3CC[C@H]4[C@@H]5CC[C@@H]6C[C@H](O)CC[C@]6(C)[C@H]5CC[C@]34C)NC(=O)[C@H](C)NC(=O)[C@H](CC(=O)O)NC(=O)[C@H](CC(=O)O)NC1=O)NC(=O)[C@H](CC(C)(C)C)NC(=O)[C@H](CC(=O)O)NC2=O (stereo partly drawn) [I-1474, Ac-PL3-Asp-Npg-B5-Asp-Asp-Ala-[lithocholate-PEG2]-Lys-Phe-Leu-PyrS2-3Thi-BztA-Gln-NH2] | 0.041 µM | > 20 µM |  |  |  |
| CC(=O)N1CCC[C@]12CC=CCCCC1(CCCC=CCCCOC(=O)N3CC[C@@](C(=O)N[C@@H](Cc4ccsc4)C(=O)N[C@@H](Cc4csc5ccccc45)C(=O)N[C@@H](CCC(N)=O)C(N)=O)(C3)NC(=O)[C@H](CC(C)C)NC(=O)[C@H](Cc3ccccc3)NC(=O)[C@H](C)NC(=O)[C@H](C)NC(=O)[C@H](CC(=O)O)NC(=O)[C@H](CC(=O)O)NC1=O)NC(=O)[C@H](CC(C)(C)C)NC(=O)[C@H](CC(=O)OCCSSc1ccccc1)NC2=O (stereo partly drawn) [I-1953, Ac-PL3-[EtSSPh]AspE-Npg-B5-Asp-Asp-Ala-Ala-Phe-Leu-PyrS2-3Thi-BztA-Gln-NH2] |  |  | > 20 µM |  | 0.306 µM |
| CC(=O)N1CCC[C@]12CC=CCCCC1(CCCC=CCCCOC(=O)N3CC[C@@](C(=O)N[C@@H](Cc4ccccc4Cl)C(=O)N[C@@H](Cc4csc5ccccc45)C(=O)N[C@@H](C)C(N)=O)(C3)NC(=O)[C@H](CO)NC(=O)[C@H](Cc3ccccc3)NC(=O)[C@H](C)NC(=O)[C@H](C)NC(=O)[C@H](Cc3cccc(C(=O)O)c3)NC(=O)[C@H](CC(=O)O)NC1=O)NC(=O)[C@H](CC(C)(C)C)NC(=O)[C@H](CC(=O)O)NC2=O (stereo partly drawn) [I-2027, Ac-PL3-Asp-Npg-B5-Asp-3COOHF-Ala-Ala-Phe-Ser-PyrS2-2C1F-BztA-Ala-NH2] | 0.013 µM |  | 4.1 µM |  |  |

The next lines start with results.

| IC50 [1, 3] | IC50 ([2]; absolute IC50) | IC50 [2] | IC50 ([1]; read-out: beta-Catenin FP IC50) | SMILES | IC50 ([1]; read-out: beta-Catenin FP IC50; fluorescence polarization) |
| --- | --- | --- | --- | --- | --- |
| 0.058 µM | 33.9 µM |  |  | CC(=O)N1CCC[C@]12CC=CCCCC1(CCCC=CCCCOC(=O)N3CC[C@@](C(=O)N[C@@H](Cc4ccsc4)C(=O)N[C@@H](Cc4csc5ccccc45)C(=O)N[C@@H](CCC(N)=O)C(N)=O)(C3)NC(=O)[C@H](CC(N)=O)NC(=O)[C@H](Cc3ccccc3)NC(=O)[C@H](C)NC(=O)[C@H](C)NC(=O)[C@H](Cc3c[nH]c4ccccc34)NC(=O)[C@H](CC(=O)O)NC1=O)NC(=O)[C@H](CC(C)(C)C)NC(=O)[C@H](CC(=O)O)NC2=O (stereo partly drawn) [I-1788, Ac-PL3-Asp-Npg-B5-Asp-Trp-Ala-Ala-Phe-Asn-PyrS2-3Thi-BztA-Gln-NH2] |  |
| 0.011 µM | 35 µM |  |  | CC(=O)N1CCC[C@]12CC=CCCCC1(CCCC=CCCCCCC[C@@](C)(C(=O)N[C@@H](Cc3cccs3)C(=O)N[C@@H](Cc3csc4ccccc34)C(=O)N[C@@H](CCC(N)=O)C(N)=O)NC(=O)[C@H](CC(N)=O)NC(=O)[C@H](Cc3ccccc3)NC(=O)[C@H](C)NC(=O)[C@H](C)NC(=O)[C@H](CC(=O)O)NC(=O)[C@H](CC(=O)O)NC1=O)NC(=O)[C@H](CC(C)(C)C)NC(=O)[C@H](CC(=O)O)NC2=O (stereo partly drawn) [I-1391, Ac-PL3-Asp-Npg-B5-Asp-Asp-Ala-Ala-Phe-Asn-S8-2Thi-BztA-Gln-NH2] |  |
| 0.01 µM | 31.9 µM |  |  | CC(=O)N1CCC[C@]12CC=CCCCC1(CCCC=CCCCOC(=O)N3CC[C@@](C(=O)N[C@@H](Cc4ccsc4)C(=O)N[C@@H](Cc4csc5ccccc45)C(=O)N[C@@H](CCC(N)=O)C(N)=O)(C3)NC(=O)[C@H](CC(C)C)NC(=O)[C@H](Cc3ccccc3)NC(=O)[C@H](C)NC(=O)[C@H](C)NC(=O)[C@H](CN(CC(=O)O)C(=O)CN3CCOCC3)NC(=O)[C@H](CC(=O)O)NC1=O)NC(=O)[C@H](CC(C)(C)C)NC(=O)[C@H](CC(=O)O)NC2=O (stereo partly drawn) [I-2239, Ac-PL3-Asp-Npg-B5-Asp-[MorphAc]GA-Ala-Ala-Phe-Leu-PyrS2-3Thi-BztA-Gln-NH2] |  |
| 0.01 µM | 8.2 µM |  |  | CCCC[C@@H]1NC(=O)[C@H](Cc2ccccc2)NC(=O)[C@H](C)NC(=O)C(C)(C)NC(=O)[C@H](Cc2cccc(C(=O)O)c2)NC(=O)[C@H](CC(=O)O)NC(=O)C2(CCCC=CCCCOC(=O)N3CC[C@@](C(=O)N[C@@H](Cc4ccsc4)C(=O)N[C@@H](Cc4csc5ccccc45)C(=O)N[C@@H](CCC(=O)N4CCOCC4)C(N)=O)(C3)NC1=O)CCCC=CC[C@]1(CCCN1C(C)=O)C(=O)N[C@@H](CC(=O)O)C(=O)N[C@@H](CC(C)(C)C)C(=O)N2 (stereo partly drawn) [I-2553, Ac-PL3-Asp-Npg-B5-Asp-3COOHF-Aib-Ala-Phe-nLeu-PyrS2-3Thi-BztA-[Morph]GlnR-NH2] |  |
| 0.067 µM | > 20 µM |  |  | CC(=O)N1CCC[C@]12CCCCCCC1(CCCCCCCOC(=O)N3CC[C@@](C(=O)N[C@@H](Cc4ccsc4)C(=O)N[C@@H](Cc4csc5ccccc45)C(=O)N[C@@H](CCC(N)=O)C(N)=O)(C3)NC(=O)[C@H](CC(N)=O)NC(=O)[C@H](Cc3ccccc3)NC(=O)[C@H](C)NC(=O)[C@H](C)NC(=O)[C@H](CC(=O)O)NC(=O)[C@H](CC(=O)O)NC1=O)NC(=O)[C@H](CC(C)(C)C)NC(=O)[C@H](CC(=O)O)NC2=O (stereo partly drawn) [I-1821, Ac-PL3-Asp-Npg-B5-Asp-Asp-Ala-Ala-Phe-Asn-PyrS1-3Thi-BztA-Gln-NH2] |  |
| 0.036 µM | 4.2 µM |  |  | CC(=O)N1CCC[C@]12CC=CCCCC1(CCCC=CCCCOC(=O)N3CC[C@@](C(=O)N[C@@H](Cc4ccccc4C(F)(F)F)C(=O)N[C@@H](Cc4csc5c(Cl)cccc45)C(=O)N[C@@H](C)C(N)=O)(C3)NC(=O)[C@H](CC(C)C)NC(=O)[C@H](Cc3ccccc3)NC(=O)[C@H](C)NC(=O)[C@H](CCC(N)=O)NC(=O)[C@H](Cc3cccc(C(=O)O)c3)NC(=O)[C@H](CC(=O)O)NC1=O)NC(=O)[C@H](CC(C)(C)C)NC(=O)[C@H](CC(=O)O)NC2=O (stereo partly drawn) [I-2487, Ac-PL3-Asp-Npg-B5-Asp-3COOHF-Gln-Ala-Phe-Leu-PyrS2-2F3MeF-7C1BztA-Ala-NH2] |  |

Reference: patent US20240116985A1, “STAPLED PEPTIDES AND METHODS THEREOF” (priority 2020, published 2024)
